Earlier results in patent publication US7354906B2, “Composition of anti-HIV drugs and anti-cortisol compounds and method for decreasing the side effects of anti-HIV drugs in a human” (Samaritan Pharmaceuticals, Inc., priority 1999, dated 2008).

Experiments:
[1] = human, 20 mg/kg/day, four weeks, no increase in caloric intake
[2] = AZT recipients
[3] = hydrochloride salt
[4] = 50 mg per day for 6 months, age advanced humans

## CC(C)Oc1ccc2c(=O)c(-c3ccccc3)coc2c1 [Ipriflavone, 7-isoproxy-isoflavone]
[1]
  increase in body weight: about 5 pounds

## Cc1cn([C@H]2C[C@H](N=[N+]=[N-])[C@@H](CO)O2)c(=O)[nH]c1=O [AZT, 3′-azido-3′-deoxythymidine]
[2]
  recipients who develop anemia: 24%

## CCN(CC)CCOC(=O)c1ccc(N)cc1.Cl [Procaine hydrochloride, 2-diethylaminoethyl p-aminobenzoate hydrochloride]
[3]
  solubility: soluble in water and alcohol, but much less soluble in organic solvents

## C[C@]12CC[C@H](O)CC1=CC[C@@H]1[C@@H]2CC[C@]2(C)C(=O)CC[C@@H]12 [DHEA, Dehydroepiandrosterone]
Dosages as high as 1.6 gm/day
  safety of DHEA dosages: safe and without side effects
men, 1600 mg/day for 28 days
  mean serum total cholesterol levels: fall
men, 1600 mg/day for 28 days, no change in weight
  mean percent body fat decrease: 31%
[4]
  bioavailable IGF-1: induced an increase
